Active and inactive are the calls of the source. No cut-off for these calls is given here.
Legend:
[1] = species on record: Rattus norvegicus; test: (§1) Antifibrotic activity against TGFbeta1 stimulated rat LTC-14 cells assessed as inhibition of collagen 1 synthesis at 0.5 uM after 24 hrs by ELISA relative to calcipotriol; type: functional
[2] = species on record: Rattus norvegicus; test: Antifibrotic activity against TGFbeta1 stimulated rat LTC-14 cells assessed as inhibition of alpha-SMA level at 500 nM after 24 hrs by Western blot; type: functional
[3] = species on record: Rattus norvegicus; test: Antifibrotic activity against TGFbeta1 stimulated rat LTC-14 cells assessed as inhibition of collagen 1 level at 500 nM after 24 hrs by Western blot; type: functional
[4] = as §1; type: functional; details: LTC-14, 24 h
[5] = target: T1, Vitamin D3 receptor (Homo sapiens) (UniProt P11473); test: Transactivation of VDR (unknown origin) expressed in HEK293 cells harboring pENTER-CMV-human RXRalpha after 24 hrs by luciferase reporter gene assay; type: cell-based
T1 sequence (whole entry): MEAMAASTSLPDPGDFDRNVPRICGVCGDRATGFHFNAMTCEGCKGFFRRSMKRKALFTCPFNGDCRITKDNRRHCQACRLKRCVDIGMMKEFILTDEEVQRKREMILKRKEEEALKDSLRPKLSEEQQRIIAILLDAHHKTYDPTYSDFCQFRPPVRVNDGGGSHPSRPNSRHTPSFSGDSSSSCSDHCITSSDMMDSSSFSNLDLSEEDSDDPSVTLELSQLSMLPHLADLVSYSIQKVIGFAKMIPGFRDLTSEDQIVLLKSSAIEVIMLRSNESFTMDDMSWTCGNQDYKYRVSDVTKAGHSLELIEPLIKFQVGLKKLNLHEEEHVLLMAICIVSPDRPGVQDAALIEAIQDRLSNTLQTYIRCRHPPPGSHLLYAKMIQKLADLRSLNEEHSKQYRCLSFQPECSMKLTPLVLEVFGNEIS

[6] = species on record: Rattus norvegicus; test: Antifibrotic activity against TGFbeta1 stimulated rat LTC-14 cells assessed as inhibition of collagen 1 alpha 1 mRNA expression at 500 nM after 24 hrs by RT-qPCR analysis; type: functional
[7] = target: T1, Vitamin D3 receptor (Homo sapiens); test: Transactivation of VDR (unknown origin) expressed in HEK293 cells harboring pENTER-CMV-human RXRalpha at 10^-8M to 10^-6M after 24 hrs by luciferase reporter gene assay; type: cell-based
[8] = species on record: Rattus norvegicus; test: Antifibrotic activity against TGFbeta1 stimulated rat LTC-14 cells assessed as inhibition of alpha-SMA mRNA expression at 500 nM after 24 hrs by RT-qPCR analysis; type: functional
[9] = tested on: Mus musculus; test: Toxicity in caerulein induced chronic pancreatic C57BL/6J mouse model assessed as serum calcium levels at 0.5 mg/kg, po administered via gavage treated for 5 times per week measured after 3 days (reference value: 0.25 umol/ml); type: organism-based; details: in vivo, 72 h
[10] = tested on: Mus musculus; test: Toxicity in caerulein induced chronic pancreatic C57BL/6J mouse model assessed as reduction in body weight at 0.5 mg/kg, po administered via gavage treated for 5 times per week measured after 3 days; type: organism-based; details: in vivo, 72 h
[11] = Half life in C57BL/6J mouse at 10 mg/kg, iv by HPLC analysis; type: ADME, organism-based; details: in vivo
[12] = tested on: Mus musculus; test: Antifibrotic activity in caerulein induced chronic pancreatic C57BL/6J mouse model assessed as inhibition of collagen deposition at 0.5 mg/kg, po administered via gavage treated for 5 times per week measured after 3 days by Masson's trichrome staining based histopathological analysis; type: functional, organism-based
[13] = Oral bioavailability in C57BL/6J mouse at 20 mg/kg by HPLC analysis; type: ADME, organism-based; details: in vivo
[14] = AUC (0 to infinity) in C57BL/6J mouse at 20 mg/kg, po by HPLC analysis; type: ADME, organism-based; set-up: dose 20 mg/kg, route oral, time infinity; details: in vivo
[15] = MRT in C57BL/6J mouse at 10 mg/kg, iv by HPLC analysis; type: ADME, organism-based; details: in vivo
[16] = tested on: Mus musculus; test: Antifibrotic activity in caerulein induced chronic pancreatic C57BL/6J mouse model assessed as inhibition of alpha-SMA expression in interstitial area of pancreas tissue at 0.5 mg/kg, po administered via gavage treated for 5 times per week measured after 3 days by immunohistochemistry analysis; type: functional, organism-based
[17] = Clearance in C57BL/6J mouse at 10 mg/kg, iv by HPLC analysis; type: ADME, organism-based; details: in vivo
[18] = MRT in C57BL/6J mouse at 20 mg/kg, po by HPLC analysis; type: ADME, organism-based; details: in vivo
[19] = AUC (0 to infinity) in C57BL/6J mouse at 10 mg/kg, iv by HPLC analysis; type: ADME, organism-based; set-up: dose 10 mg/kg, time infinity, route intravenous; details: in vivo
[20] = Half life in C57BL/6J mouse at 20 mg/kg, po by HPLC analysis; type: ADME, organism-based; details: in vivo
[21] = tested on: Mus musculus; test: Antifibrotic activity in caerulein induced chronic pancreatic C57BL/6J mouse model assessed as inhibition of pancreas lesions at 0.5 mg/kg, po administered via gavage treated for 5 times per week measured after 3 days by hematoxylin and eosin staining based histopathological analysis; type: functional, organism-based
[22] = Clearance in C57BL/6J mouse at 20 mg/kg, po by HPLC analysis; type: ADME, organism-based; details: in vivo
[23] = tested on: Mus musculus; test: Toxicity in caerulein induced chronic pancreatic C57BL/6J mouse model assessed as change in body weight at 0.5 mg/kg, po administered via gavage treated for 5 times per week measured after 3 days; type: organism-based; details: in vivo, 72 h
[24] = tested on: Mus musculus; test: Toxicity in caerulein induced chronic pancreatic C57BL/6J mouse model assessed as change in serum calcium levels at 0.5 mg/kg, po administered via gavage treated for 5 times per week measured after 3 days; type: organism-based; details: in vivo, 72 h

| SMILES | inhibition [1] | inhibition [2] | inhibition [3] | inhibition at 0.5 µM [4] | further results |
| --- | --- | --- | --- | --- | --- |
| CCC(CC)(c1ccc(OCCCCCC(=O)O)c(C)c1)c1ccc(OCC(O)C(C)(C)C)c(OCC(O)C(C)(C)C)c1 (stereo not drawn) | inactive |  |  |  |  |
| CCC(CC)(c1ccc(OCCCCC(=O)O)c(C)c1)c1ccc(OCC(O)C(C)(C)C)c(OCC(O)C(C)(C)C)c1 (stereo not drawn) | inactive |  |  |  |  |
| CCC(CC)(c1ccc(OCCCCO)c(C)c1)c1ccc(OCC(O)C(C)(C)C)c(OCC(O)C(C)(C)C)c1 (stereo not drawn) |  | Active | Active | 189% | Activity [5]: Dose-dependent effect |
| CCC(CC)(c1ccc(OS(=O)(=O)c2ccc([N+](=O)[O-])cc2)c(C)c1)c1ccc(OCC(O)C(C)(C)C)c(OCC(O)C(C)(C)C)c1 (stereo not drawn) |  |  |  | 82% |  |
| CCC(CC)(c1ccc(OCC(O)CO)c(C)c1)c1ccc(OCC(O)C(C)(C)C)c(C)c1 (stereo not drawn) [LG-190178] |  | Active | Active | 97% | inhibition [6]: Active; Activity [7]: Active; inhibition [8]: Active |
| CCC(CC)(c1ccc(OCCO)c(C)c1)c1ccc(OCC(O)C(C)(C)C)c(OCC(O)C(C)(C)C)c1 (stereo not drawn) |  | Active | Active | 128% |  |
| CCC(CC)(c1ccc(OS(=O)(=O)c2ccc(C)cc2)c(C)c1)c1ccc(OCC(O)C(C)(C)C)c(OCC(O)C(C)(C)C)c1 (stereo not drawn) |  |  |  | 137% |  |
| CCC(CC)(c1ccc(OCCCCCO)c(C)c1)c1ccc(OCC(O)C(C)(C)C)c(OCC(O)C(C)(C)C)c1 (stereo not drawn) |  |  |  | 133% |  |
| CCC(CC)(c1ccc(OS(=O)(=O)c2ccccc2)c(C)c1)c1ccc(OCC(O)C(C)(C)C)c(OCC(O)C(C)(C)C)c1 (stereo not drawn) |  |  |  | 23% |  |
| CCC(CC)(c1ccc(OCCCCCCCO)c(C)c1)c1ccc(OCC(O)C(C)(C)C)c(OCC(O)C(C)(C)C)c1 (stereo not drawn) | inactive |  |  |  |  |
| CCC(CC)(c1ccc(OS(C)(=O)=O)c(C)c1)c1ccc(OCC(O)C(C)(C)C)c(OCC(O)C(C)(C)C)c1 (stereo not drawn) |  |  |  | 8% |  |
| C=C1/C(=C\C=C2/CCC[C@]3(C)[C@@H]([C@H](C)/C=C/[C@@H](O)C4CC4)CC[C@@H]23)C[C@@H](O)C[C@@H]1O [CALCIPOTRIENE] |  | Active | Active | 100% | inhibition [6]: Active; Activity [9]: 0.37 µmol/mL; Activity [10]: Toxic; Activity [7]: Active; inhibition [8]: Active |
| CCC(CC)(c1ccc(OCCCCCCO)c(C)c1)c1ccc(OCC(O)C(C)(C)C)c(OCC(O)C(C)(C)C)c1 (stereo not drawn) |  |  |  | 74% |  |
| CCC(CC)(c1ccc(OCCCC(=O)O)c(C)c1)c1ccc(OCC(O)C(C)(C)C)c(OCC(O)C(C)(C)C)c1 (stereo not drawn) | inactive |  |  |  |  |
| CCC(CC)(c1ccc(OCCCO)c(C)c1)c1ccc(OCC(O)C(C)(C)C)c(OCC(O)C(C)(C)C)c1 (stereo not drawn) |  | Active | Active | 172% | half-life [11]: 2.66 h; inhibition [12]: Active; bioavailability [13]: 31.6%; AUC(0-inf) [14]: 20600 ng·h/mL; inhibition [6]: Active; MRT [15]: 4.65 h; inhibition [16]: Active; clearance [17]: 5.17 mL/min; MRT [18]: 6.59 h; AUC(0-inf) [19]: 32600 ng·h/mL; half-life [20]: 4.12 h; inhibition [21]: Active; CL/F [22]: 20.2 mL/min; Activity [5]: Dose-dependent effect; Activity [23]: Non-Toxic; inhibition [8]: Active; Activity [24]: Non-Toxic |
| CCC(CC)(c1ccc(OCC(=O)O)c(C)c1)c1ccc(OCC(O)C(C)(C)C)c(OCC(O)C(C)(C)C)c1 (stereo not drawn) | inactive |  |  |  |  |
| CCC(CC)(c1ccc(OS(=O)(=O)c2ccc(C)cc2)c(C)c1)c1ccc(OCC(=O)C(C)(C)C)c(OCC(=O)C(C)(C)C)c1 |  | Active | Active | 85% |  |
| CCC(CC)(c1ccc(OCC(O)CO)c(C)c1)c1ccc(OCC(O)C(C)(C)C)c(OCC(O)C(C)(C)C)c1 (stereo not drawn) |  |  |  | 147% | Activity [5]: Dose-dependent effect |
| CCC(CC)(c1ccc(OCCCCCCC(=O)O)c(C)c1)c1ccc(OCC(O)C(C)(C)C)c(OCC(O)C(C)(C)C)c1 (stereo not drawn) | inactive |  |  |  |  |
